Values joined by “and” are separate entries in the source; they are usually repeats but may differ in a detail not shown here. Equal values may be shown once. Where a SMILES comes first, the peptide text is derived from it. The star is where a group is joined. 5FAM = O=C1OC2(c3ccc(O)cc3Oc3cc(O)ccc32)c2ccc(C(=O)*)cc21; X1 = CN(C)c1ccc(/N=N/c2ccc(C(=O)*)cc2)cc1
What was measured:
[1] = tested on: CHO-K1 cells; assay: Relative quantification of total internalised peptide by flow cytometry; conditions: CHO-K1, 1 h, DMEM-F12, internalisation ratio by flow cytometry, intact cells, 20.000 cells
Procedure: After incubation and washing the cells with HBSS, 500 μL 0.05% trypsin/EDTA 0.05% (37 °C) or 500 µL pronase 0.05% in 100 mM Tris-buffer (4 °C) was added for 5 min to hydrolyze the remaining extracellular peptide, the membrane-bound peptide and to detach cells. After addition of 100 µL enzyme inhibitors (complete mini at 4 °C (Roche) or trypsin inhibitor (soybean inhibitor 5 mg/mL) at 37 °C mixed with 100 μL bovine serum albumin (1 mg/mL). Cells were transferred into a microtube, centrifuged, washed with 1 mL 50 mM Tris-buffer pH 7.4, 0.1% BSA, and the cell pellet was suspended in 400 μL of PBS. The fluorescence of individual cells was analysed with a FACS Calibur flow cytometer. 20.000 cells were measured for each experimental condition. The mean fluorescence of a sample was obtained by subtracting the autofluorescence of cells from the measured mean fluorescence of cells in the presence of the peptide.

[2] = tested on: HL-60 cells; assay: Cellular uptake by flow cytometry on HL-60 cells; format: cell-based, human; conditions: HL-60, 90 min, 37 °C, serum-free, concentrations of the two values not stated, Dabcyl quenches Cf
Procedure: HL-60 cells were cultured as described above. To study the cellular uptake of fluorescent labelled compounds, 10^5 cells per well were plated on 24-well plates. After 24 h incubation at 37 °C, cells were treated with the compounds solved in the corresponding serum-free media for 90 min. The cellular uptake was analysed at 1, 5 and 10 µM concentrations. Cells treated with serum-free media for 90 min were used as control. After incubation, treatment solutions were removed and the cells were treated with 100 μL trypsin for 2 min to remove the membrane proteins in order to eliminate non-specific binding of conjugates. The effect of trypsin was terminated by 900 μL HPMI (glucose, NaHCO3, NaCl, HEPES, KCl, MgCl2, CaCl2, Na2HPO4·2H2O) (Kapus et al. [1994]) containing 10% foetal calf serum, and the cells were transferred from the plate to FACS-tubes. Cells were centrifuged at 216 g at 4 °C for 5 min and the supernatant was removed. After this procedure, cells were resuspended in 500 µL HPMI, and the intracellular fluorescence intensity of HL-60 cells was monitored (on channel FITC LP505; emission at λ = 505 nm; LP 505, BP 530/30) by flow cytometry (BD LSR II, BD Bioscience, San Jose, CA, equipped with 488 nm; Coherent Sapphire, 22 mW laser.) which is proportional to the cellular uptake. Data were analysed with FACSDiVa 5.0 software.

[3] = tested on: CHO-K1 cells; assay: Absolute quantification of total internalised peptide by fluorometry; conditions: for Total (37 °C–4 °C) (pmoles) Endocyt. / 4 °C/37 °C (Fluoro): CHO-K1, 60 min; for Total (37 °C–4 °C) (pmoles) Endocyt.: difference of fluorometry values at 37 °C and 4 °C; for 4 °C/37 °C (Fluoro): internalisation ratio by fluorometry; for Total 4 °C (pmoles) Transloc. / Total 37 °C (pmoles) Endocyt. + Transloc.: one million CHO-K1 cells, DMEM-F12, 60 min, cell lysis, fluorometry 525 nm vs calibration curve, mean values; for Total 4 °C (pmoles) Transloc.: pronase wash; for Total 37 °C (pmoles) Endocyt. + Transloc.: trypsin wash
Procedure: We used the quantification method described earlier (Illien et al. [2016]). […] After incubation with peptides and washing the cells with HBSS, 500 μL 0.05% trypsin/EDTA 0.05% (37 °C) or 500 µL pronase 0.05% in 100 mM Tris pH 7.4 (4 °C) was added for 5 min to hydrolyze the remaining extracellular peptide, the membrane-bound peptide and to detach cells. After addition of 100 µL enzyme inhibitors (complete mini at 4 °C (Roche) or trypsin inhibitor (soybean inhibitor 5 mg/mL) at 37 °C mixed with 100 μL bovine serum albumin (1 mg/mL), cells were transferred into a microtube, centrifuged, washed with 1 mL 50 mM Tris buffer pH 7.4, 0.1% BSA, and lysed in 200 μL 50 mM Tris pH 7.4, 1 M NaCl, 1% Nonident P40. The samples were then sonicated for 15 min (to homogenise samples) and centrifugated for 10 min at 16.000 g. Fluorescence intensity in the supernatants was monitored with a MOS 200 M fluorimeter (Biologic SAS) and the maximal intensity was detected around λ = 525 nm. The maximal intensity was retained for the calibration curve and for quantification of samples. The amount of internalised peptides was calculated by comparing the fluorescence intensity of the sample with the calibration curve. For the calibration curve, we prepared a range of peptide amounts (from 2 to 500 pmol) in the lysis buffer (50 mM Tris pH 7.4, 1 M NaCl, 1% Nonidet P40) in the presence of one million suspended cells. The samples were sonicated 15 min and centrifuged at 16.000 g for 10 min. Fluorescence intensity in the supernatants was monitored with a MOS 200 M fluorimeter (Biologic SAS, France) and the maximal intensity was detected around λ = 525 nm. The fluorescence signal of peptides only was obtained by subtracting the fluorescence intensity of cell lysates (autofluorescence) from the fluorescence intensity of the sample.

[4] = tested on: MDA-MB-231 cells; assay: In vitro cytostatic activity (MTT) on MDA-MB-231; format: cell-based, human; conditions: 3 h incubation, then 3 days in serum-containing medium, MTT assay, ± sd
[5] = tested on: MCF-7 cells; assay: In vitro cytostatic activity (MTT) on MCF-7; format: cell-based, human; conditions: 3 h incubation, then 3 days in serum-containing medium, MTT assay, ± sd, three independent experiments with four parallels
Procedure: The cells (HL-60 or MCF-7) were grown to confluency and were plated into 96-well plate with initial cell number of 5 × 10^3 per well. After 24 h incubation at 37 °C, cells were treated with the compounds at 1.28 × 10^–3–100 μM concentration range for 3 h in 200 μL final volume. Control cells were treated with serum free medium at 37 °C for 3 h. After incubation the cells were washed twice with serum free medium. For the analysis of the in vitro cytostatic effect, cells were cultured for an additional 72 h in serum containing medium. On day 4, MTT assay was carried out to determine the IC50 values of the compounds. Briefly, 45 μL of MTT solution was added to each well (2 mg/mL, dissolved in serum-free medium). […] The precipitated purple crystals were dissolved in 100 μL DMSO and the absorbance was determined at λ = 540 nm and λ = 620 nm using ELISA plate reader (iEMSReader, Labsystems, Finland). The percent of cytostasis was calculated using the following equation: Cytostatic effect (%) = [1 − (ODtreated/ODcontrol)] × 100; where ODtreated and ODcontrol correspond to the optical densities of the treated and the untreated control cells, respectively. […] The curves were defined using MicrocalTM Origin (version 9.2) software: cytostasis was plotted as a function of concentration, fitted to a sigmoidal curve, and based on this curve, the IC50 value was determined.

[6] = tested on: HL-60 cells; assay: In vitro cytostatic activity (MTT) on HL-60; format: cell-based, human; conditions: HL-60; 3 h incubation, then 3 days in serum-containing medium; MTT assay; ± sd, three independent experiments with four parallels
Procedure: The cells (HL-60 or MCF-7) were grown to confluency and were plated into 96-well plate with initial cell number of 5 × 10^3 per well. After 24 h incubation at 37 °C, cells were treated with the compounds at 1.28 × 10^–3–100 μM concentration range for 3 h in 200 μL final volume. Control cells were treated with serum free medium at 37 °C for 3 h. After incubation the cells were washed twice with serum free medium. For the analysis of the in vitro cytostatic effect, cells were cultured for an additional 72 h in serum containing medium. On day 4, MTT assay was carried out to determine the IC50 values of the compounds. Briefly, 45 μL of MTT solution was added to each well (2 mg/mL, dissolved in serum-free medium). Following the 4 h incubation, plates were centrifuged at 900 g for 5 min, and the supernatant was removed. The precipitated purple crystals were dissolved in 100 μL DMSO and the absorbance was determined at λ = 540 nm and λ = 620 nm using ELISA plate reader (iEMSReader, Labsystems, Finland). The percent of cytostasis was calculated using the following equation: Cytostatic effect (%) = [1 − (ODtreated/ODcontrol)] × 100; where ODtreated and ODcontrol correspond to the optical densities of the treated and the untreated control cells, respectively. In each case three independent experiments were carried out with four parallel measurements. […] The curves were defined using MicrocalTM Origin (version 9.2) software: cytostasis was plotted as a function of concentration, fitted to a sigmoidal curve, and based on this curve, the IC50 value was determined.

## CN(C)c1ccc(/N=N/c2ccc(C(=O)N[C@@H](CCCNC(=N)N)C(=O)N[C@@H](CCCNC(=N)N)C(=O)N[C@@H](CCCNC(=N)N)C(=O)N[C@@H](CCCNC(=N)N)C(=O)N[C@@H](CCCCNC(=O)c3ccc4c(c3)C(=O)OC43c4ccc(O)cc4Oc4cc(O)ccc43)C(N)=O)cc2)cc1 [Dabcyl–Arg4–Lys(Cf)–NH2] (X1-RRRRK(5FAM)-NH2)
[1]; [peptide] 1 μM
  4 °C/37 °C (Flow cyto.): 0.17
[1]; [peptide] 2.5 μM
  4 °C/37 °C (Flow cyto.): 0.12
[1]; [peptide] 5 μM
  4 °C/37 °C (Flow cyto.): 0.10
[1]; [peptide] 10 μM
  4 °C/37 °C (Flow cyto.): 0.04
[2]
  Fluorescence intensity of the cells, times higher than hexaarginine: 1.6 times and 2.8 times
[3]; [peptide] 1 μM
  Total (37 °C–4 °C) (pmoles) Endocyt.: 0.3 pmol
  4 °C/37 °C (Fluoro): 0.57
  Total 4 °C (pmoles) Transloc.: 0.4 ± 0.06 pmol
  Total 37 °C (pmoles) Endocyt. + Transloc.: 0.7 ± 0.1 pmol
[3]; [peptide] 2.5 μM
  Total (37 °C–4 °C) (pmoles) Endocyt.: 1.3 pmol
  4 °C/37 °C (Fluoro): 0.43
  Total 4 °C (pmoles) Transloc.: 0.9 ± 0.1 pmol
  Total 37 °C (pmoles) Endocyt. + Transloc.: 2.2 ± 0.2 pmol
[3]; [peptide] 5 μM
  Total (37 °C–4 °C) (pmoles) Endocyt.: 6 pmol
  4 °C/37 °C (Fluoro): 0.22
  Total 4 °C (pmoles) Transloc.: 1.8 ± 0.1 pmol
  Total 37 °C (pmoles) Endocyt. + Transloc.: 7.8 ± 0.9 pmol
[3]; [peptide] 10 μM
  Total (37 °C–4 °C) (pmoles) Endocyt.: 26 pmol
  4 °C/37 °C (Fluoro): 0.14
  Total 4 °C (pmoles) Transloc.: 4.2 ± 0.3 pmol
  Total 37 °C (pmoles) Endocyt. + Transloc.: 30 ± 3.3 pmol

## COc1cccc2c1C(=O)c1c(O)c3c(c(O)c1C2=O)C[C@@](O)(C(C)=O)C[C@@H]3O[C@H]1C[C@H](NC(=O)CCC(=O)O)[C@H](O)[C@H](C)O1 [Suc–Dau, reference compound]
[4]
  IC50: > 100 µM
[5]
  IC50: 24.5 ± 7.1 µM
[6]
  IC50: 33.5 ± 1.1 µM

## Dabcyl–RRRRK(MTX)–NH2 [Dabcyl–Arg4–Lys(MTX)–NH2]
[4]
  IC50: 70.9 ± 30.1 µM

## Dabcyl–RRRRRRK(MTX)–NH2 [Dabcyl–Arg6–Lys(MTX)–NH2]
[4]
  IC50: 50.2 ± 16 µM
[5]
  IC50: 46.4 ± 18.5 µM

Source: paper PMC8241751, “Influence of the Dabcyl group on the cellular uptake of cationic peptides: short oligoarginines as efficient cell-penetrating peptides” (Amino Acids, 2021)
